Assay results published in ChEMBL document CHEMBL1131392, “3-Pyridyloxypropanolamine agonists of the beta 3 adrenergic receptor with improved pharmacokinetic properties” (Bioorg Med Chem Lett, 1998).

Assays:
[1] = Oral bioavailability in dog; assay type: ADME, organism-based, Canis lupus familiaris; details: in vivo
[2] = Compound was evaluated for half life (t1/2) upon intravenous administration of 1 mg/Kg in rats; assay type: ADME, organism-based; details: rat, in vivo
[3] = Plasma clearance upon intravenous administration of 1 mg/Kg in rats; assay type: ADME, organism-based; details: rat

| SMILES | bioavailability [1] | half-life [2] | clearance [3] |
| --- | --- | --- | --- |
| O=S(=O)(Nc1ccc(CCNC[C@H](O)COc2ccc(O)cc2)cc1)c1cnc2ccccc2c1 | 3% |  |  |
| O=S(=O)(Nc1ccc(CCNC[C@H](O)COc2ccc(O)cc2)cc1)c1ccccc1 |  | 25 min | > 200 mL/min/kg |
| CCCCCCNC(=O)Nc1ccc(S(=O)(=O)Nc2ccc(CCNC[C@H](O)COc3ccc(O)cc3)cc2)cc1 [L-755507] | < 1% |  |  |
